In data set [1] the test system is P388 murine leukemia. Nature of the data set: In vivo antitumor activity against P388 leukemia (ip tumor implant / ip drug).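 As to all read-outs here: dosing started the day after tumor implantation, and %T/C expresses median survival of treated mice relative to the saline-treated control group.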 The note with it: once daily for five days; for % T/C: >=125 considered significant; for Median Survival Time: CDF1 female mice, ip P388.
Experimental: CDF1 female mice were implanted intraperitoneally with a tumor inoculum of 10^6 ascites cells of P388, and treated with various doses of test compounds. The compounds were administered intraperitoneally once daily for five consecutive days starting on the day after tumor implantation. The ratio of median survival time for a treated group and that for the saline-treated control group was determined and expressed as %T/C.
In data set [2] the test system is Madison 109 (M109) lung carcinoma. The note with it: sc tumor implantation, intravenous drug administration on days 2, 6 and 10. How it is done:
299- (1981). Briefly, CDF1 female mice were implanted intraperitoneally (ip) with 0.5 ml or subcutaneously (sc) with 0.1 ml of a 2% brei (w/v) of M109 lung carcinoma. The test compound was administered intraperitoneally (in ip tumor implant groups) or intravenously (in sc tumor implant groups) at various dosage levels to groups of mice on days 2, 6 and 10 after tumor implantation. The median survival time and %T/C values were determined as described above.

Data set [3] relates to P388 leukemia. Nature of the data set: iv/iv P388 leukemia protocol. Format: in vivo, mice. The note with it: 0.010 mg/kg/dose iv, once daily for five days; leukemic cells implanted iv.
Data set [4] deals with Madison 109 (M109) lung carcinoma. Description: Madison 109 lung carcinoma, ip/ip model. The note with it: 0.05 mg/kg/dose ip on days 2, 6 and 10; ip tumor implantation. Format: in vivo, mice.

Starred links: 1 amine or outer side, 2 acyl side, 3 side chain; linkers in the order of their positions; H or OH if unused. Positions of bridges follow the written chain, without caps; N, C: chain ends. Non-standard residues stand in square brackets, D forms with d. Residues, ends and D or L forms follow the SMILES beside them. Chains are numbered I, II in the order given. ξ: configuration not given here. *: point of attachment. X2 = CC(C)C(=O)OC1CC=NN([*:1])C1C(=O)[*:2]; ξNMeVal(3-OH) = CNC(C(=O)O)C(C)(C)O; X1 = COc1ccc2nc(C(=O)*)cnc2c1; Sar = CNCC(=O)O

`CCC(=O)OC1CC=NN2C(=O)C(NC(=O)c3cnc4cc(OC)ccc4n3)COC(=O)C(C(C)(C)O)N(C)C(=O)CN(C)C(=O)CNC(=O)C3C(OC(=O)CC)CC=NN3C(=O)C(NC(=O)c3cnc4cc(OC)ccc4n3)COC(=O)C(C(C)(C)O)N(C)C(=O)CN(C)C(=O)CNC(=O)C12` (stereo not drawn) [BMS-181060]: the “Body Weight Change on Day 4” value in data set [1] (dose 0.003 mg/kg/day ip) was 1.0; in data set [1] (dose 0.01 mg/kg/day ip), 0.1; in data set [1] (dose 0.03 mg/kg/day ip) it was 0.0; in data set [1] (dose 0.09 mg/kg/day ip) it was -0.9; in data set [1] (dose 0.27 mg/kg/day ip), 0.7. The “% T/C” value in data set [1] (dose 0.003 mg/kg/day ip) was 105%; in data set [1] (dose 0.01 mg/kg/day ip) it was 127%; in data set [1] (dose 0.03 mg/kg/day ip), 127%; in data set [1] (dose 0.09 mg/kg/day ip) it was 91%; in data set [1] (dose 0.27 mg/kg/day ip), “Tox”; in data set [1] (dose 0.81 mg/kg/day ip) it was “Tox”. Further, the “Median Survival Time” value in data set [1] (dose 0.003 mg/kg/day ip) is recorded as 11.5; in data set [1] (dose 0.01 mg/kg/day ip), 14.0; in data set [1] (dose 0.03 mg/kg/day ip) it was 14.0; in data set [1] (dose 0.09 mg/kg/day ip) it was 10.0; in data set [1] (dose 0.27 mg/kg/day ip), “Tox”; in data set [1] (dose 0.81 mg/kg/day ip), “Tox”.
With `COc1ccc2nc(C(=O)NC3COC(=O)C(C(C)(C)O)N(C)C(=O)CN(C)C(=O)CNC(=O)C4C(OC(=O)C(C)C)CC=NN4C(=O)C(NC(=O)c4cnc5cc(OC)ccc5n4)COC(=O)C(C(C)(C)O)N(C)C(=O)CN(C)C(=O)CNC(=O)C4C(OC(=O)C(C)C)CC=NN4C3=O)cnc2c1` (stereo not drawn) [BMY-45012] (I: X1-S[X2]G[Sar][ξNMeVal(3-OH)] / II: X1-S[X2]G[Sar][ξNMeVal(3-OH)]; ester I:1-II:C, I:C-II:1; configuration not given here), the “antitumor activity (%T/C)” value in data set [2] is listed as “not significantly active”. Also, the “maximum %T/C” value in data set [3] was found to be 113%; in data set [4], 131%. For the same compound, the “Body Weight Change on Day 4” value is -0.4 in data set [1] (dose 0.02 mg/kg/day ip), 0.3 in data set [1] (dose 0.05 mg/kg/day ip), -0.7 in data set [1] (dose 0.2 mg/kg/day ip) and -0.1 in data set [1] (dose 0.7 mg/kg/day ip). Further, the “% T/C” value was 115% in data set [1] (dose 0.02 mg/kg/day ip), 145% in data set [1] (dose 0.05 mg/kg/day ip), 145% in data set [1] (dose 0.2 mg/kg/day ip) and 95% in data set [1] (dose 0.7 mg/kg/day ip). The “Median Survival Time” value worked out at 11.5 in data set [1] (dose 0.02 mg/kg/day ip), 14.5 in data set [1] (dose 0.05 mg/kg/day ip), 14.5 in data set [1] (dose 0.2 mg/kg/day ip) and 9.5 in data set [1] (dose 0.7 mg/kg/day ip).
Take `COc1ccc2nc(C(=O)NC3COC(=O)C(C(C)(C)O)N(C)C(=O)CN(C)C(=O)CNC(=O)C4C(OC(=O)C(C)C)CC=NN4C(=O)C(NC(=O)c4cnc5cc(OC)ccc5n4)COC(=O)C(C(C)(C)O)N(C)C(=O)CN(C)C(=O)CNC(=O)C4C(OC(=O)CC(C)C)CC=NN4C3=O)cnc2c1` (stereo not drawn) [BMY-46404]: the “Body Weight Change on Day 4” value in data set [1] (dose 0.02 mg/kg/day ip) is -0.1; in data set [1] (dose 0.05 mg/kg/day ip), 0.2; in data set [1] (dose 0.2 mg/kg/day ip), -0.0; in data set [1] (dose 0.7 mg/kg/day ip), -0.3; in data set [1] (dose 2.0 mg/kg/day ip) it was -0.7. For the same compound, the “% T/C” value stood at 130% in data set [1] (dose 0.02 mg/kg/day ip); 140% in data set [1] (dose 0.05 mg/kg/day ip); 135% in data set [1] (dose 0.2 mg/kg/day ip); 165% in data set [1] (dose 0.7 mg/kg/day ip); 80% in data set [1] (dose 2.0 mg/kg/day ip). For the same compound, the “Median Survival Time” value in data set [1] (dose 0.02 mg/kg/day ip) is reported as 13.0; in data set [1] (dose 0.05 mg/kg/day ip), 14.0; in data set [1] (dose 0.2 mg/kg/day ip), 13.5; in data set [1] (dose 0.7 mg/kg/day ip), 16.5; in data set [1] (dose 2.0 mg/kg/day ip), 8.5.
Take `COc1ccc2nc(C(=O)NC3COC(=O)C(C(C)(C)O)N(C)C(=O)CN(C)C(=O)CNC(=O)C4C(OC(=O)CC(C)C)CC=NN4C(=O)C(NC(=O)c4cnc5cc(OC)ccc5n4)COC(=O)C(C(C)(C)O)N(C)C(=O)CN(C)C(=O)CNC(=O)C4C(OC(=O)CC(C)C)CC=NN4C3=O)cnc2c1` (stereo not drawn) [BMY-46405]: the “Body Weight Change on Day 4” value in data set [1] (dose 0.02 mg/kg/day ip) is on record as -0.8; in data set [1] (dose 0.05 mg/kg/day ip), -0.8; in data set [1] (dose 0.2 mg/kg/day ip) it was -3.4. The “% T/C” value is on record as 140% in data set [1] (dose 0.02 mg/kg/day ip); 175% in data set [1] (dose 0.05 mg/kg/day ip); “Tox” in data set [1] (dose 0.2 mg/kg/day ip); “Tox” in data set [1] (dose 0.7 mg/kg/day ip); “Tox” in data set [1] (dose 2.0 mg/kg/day ip). Besides, the “Median Survival Time” value was 14.0 in data set [1] (dose 0.02 mg/kg/day ip); 17.5 in data set [1] (dose 0.05 mg/kg/day ip); “Tox” in data set [1] (dose 0.2 mg/kg/day ip); “Tox” in data set [1] (dose 0.7 mg/kg/day ip); “Tox” in data set [1] (dose 2.0 mg/kg/day ip).
Regarding `CCC(=O)OC1CC=NN2C(=O)C(NC(=O)c3cnc4cc(OC)ccc4n3)COC(=O)C(C(C)(C)O)N(C)C(=O)CN(C)C(=O)CNC(=O)C3C(OC(C)=O)CC=NN3C(=O)C(NC(=O)c3cnc4cc(OC)ccc4n3)COC(=O)C(C(C)(C)O)N(C)C(=O)CN(C)C(=O)CNC(=O)C12` (stereo not drawn) [BMY-46407], the “Body Weight Change on Day 4” value in data set [1] (dose 0.02 mg/kg/day ip) is 1.0; in data set [1] (dose 0.05 mg/kg/day ip), -0.0; in data set [1] (dose 0.2 mg/kg/day ip) it was -0.01. Moreover, the “% T/C” value in data set [1] (dose 0.02 mg/kg/day ip) is listed as 120%; in data set [1] (dose 0.05 mg/kg/day ip), 135%; in data set [1] (dose 0.2 mg/kg/day ip), “Tox”; in data set [1] (dose 0.7 mg/kg/day ip), “Tox”; in data set [1] (dose 2.0 mg/kg/day ip), “Tox”. Besides, the “Median Survival Time” value is 12.0 in data set [1] (dose 0.02 mg/kg/day ip); 13.5 in data set [1] (dose 0.05 mg/kg/day ip); “Tox” in data set [1] (dose 0.2 mg/kg/day ip); “Tox” in data set [1] (dose 0.7 mg/kg/day ip); “Tox” in data set [1] (dose 2.0 mg/kg/day ip).
Regarding `CCC(=O)OC1CC=NN2C(=O)C(NC(=O)c3cnc4cc(OC)ccc4n3)COC(=O)C(C(C)(C)O)N(C)C(=O)CN(C)C(=O)CNC(=O)C3C(OC(=O)C(C)C)CC=NN3C(=O)C(NC(=O)c3cnc4cc(OC)ccc4n3)COC(=O)C(C(C)(C)O)N(C)C(=O)CN(C)C(=O)CNC(=O)C12` (stereo not drawn) [BMY-46408], the “Body Weight Change on Day 4” value in data set [1] (dose 0.02 mg/kg/day ip) is -0.1; in data set [1] (dose 0.05 mg/kg/day ip), -0.4; in data set [1] (dose 0.2 mg/kg/day ip), 0.2; in data set [1] (dose 0.7 mg/kg/day ip), 0.3. Also, the “% T/C” value is given as 150% in data set [1] (dose 0.02 mg/kg/day ip); 155% in data set [1] (dose 0.05 mg/kg/day ip); 155% in data set [1] (dose 0.2 mg/kg/day ip); 85% in data set [1] (dose 0.7 mg/kg/day ip); “Tox” in data set [1] (dose 2.0 mg/kg/day ip). Besides, the “Median Survival Time” value in data set [1] (dose 0.02 mg/kg/day ip) is given as 15.0; in data set [1] (dose 0.05 mg/kg/day ip) it was 15.5; in data set [1] (dose 0.2 mg/kg/day ip), 15.5; in data set [1] (dose 0.7 mg/kg/day ip), 8.5; in data set [1] (dose 2.0 mg/kg/day ip), “Tox”.
Regarding `COc1ccc2nc(C(=O)NC3COC(=O)C(C(C)(C)O)N(C)C(=O)CN(C)C(=O)CNC(=O)C4C(OC(=O)C(C)C)CC=NN4C(=O)C(NC(=O)c4cnc5cc(OC)ccc5n4)COC(=O)C(C(C)(C)O)N(C)C(=O)CN(C)C(=O)CNC(=O)C4C(OC(C)=O)CC=NN4C3=O)cnc2c1` (stereo not drawn) [BMY-46572], in data set [1] (dose 0.003 mg/kg/day ip), the “Body Weight Change on Day 4” value turned out to be 0.4, the “% T/C” value worked out at 110% and the “Median Survival Time” value came out at 11.0. Besides, in data set [1] (dose 0.01 mg/kg/day ip), the “Body Weight Change on Day 4” value stood at 0.5, the “% T/C” value was 125% and the “Median Survival Time” value was 12.5. In data set [1] (dose 0.03 mg/kg/day ip), the “Body Weight Change on Day 4” value is -0.0, the “% T/C” value was 140% and the “Median Survival Time” value is 14.0.
